# Measurements reported in patent publication US20250230193A1, “CYCLIC COMPOUND HAVING SELECTIVE KRAS INHIBITORY EFFECT ON HRAS AND NRAS” (CHUGAI SEIYAKU KABUSHIKI KAISHA, priority 2022, published 2025).
# How the values were obtained:
# [1] = target: GDP-bound NRAS wild-type protein (Homo sapiens, UniProt P01111); assay: Binding to NRAS by surface plasmon resonance (SPR), Single Cycle Kinetics; settings: KD ratio, GDP-bound NRAS wild-type vs GDP-bound KRAS wild-type, SPR
# [2] = target: GDP-bound HRAS wild-type protein (Homo sapiens, UniProt P01112); assay: Binding to HRAS by surface plasmon resonance (SPR), Single Cycle Kinetics; settings: KD ratio, GDP-bound HRAS wild-type vs GDP-bound KRAS wild-type, SPR
# Sequence of GDP-bound HRAS wild-type protein (P01112 whole entry): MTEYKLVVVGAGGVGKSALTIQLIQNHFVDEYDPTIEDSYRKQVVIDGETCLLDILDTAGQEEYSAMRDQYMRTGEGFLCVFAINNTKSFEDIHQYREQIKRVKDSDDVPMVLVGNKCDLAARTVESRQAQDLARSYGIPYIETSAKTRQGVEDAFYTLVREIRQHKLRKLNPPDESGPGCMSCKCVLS
# Sequence of GDP-bound NRAS wild-type protein (P01111 whole entry): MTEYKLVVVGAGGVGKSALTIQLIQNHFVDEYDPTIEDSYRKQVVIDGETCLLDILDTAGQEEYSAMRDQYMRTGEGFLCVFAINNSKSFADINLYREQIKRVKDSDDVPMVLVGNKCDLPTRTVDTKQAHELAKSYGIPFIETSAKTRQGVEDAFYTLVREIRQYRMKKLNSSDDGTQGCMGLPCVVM
SMILES,NRAS/KRAS (ratio of KD value with respect to NRAS to KD value with respect to KRAS) [1],HRAS/KRAS (ratio of KD value with respect to HRAS to KD value with respect to KRAS) [2]
CCO[C@@H]1C[C@H]2C(=O)NC3(CCC3)C(=O)N(C)[C@@H](CC(F)F)C(=O)N(C)[C@H](C(=O)N3CCOCC3)CC(=O)N(C)[C@@H](CC(C)C)C(=O)N[C@@H]([C@@H](C)CC)C(=O)N(C)CC(=O)N(C)[C@H]3CCCCCN(C3=O)[C@@H](Cc3ccc(C(F)(F)F)cc3)C(=O)N(C)CC(=O)N[C@@H](CCc3cc(F)c(C(F)(F)F)c(F)c3)C(=O)N2C1 [PP0822],B (a compound having 3 or more and less than 10 is denoted as B),B (a compound having 3 or more and less than 10 is denoted as B)
CCO[C@@H]1C[C@H]2C(=O)NC3(CCC3)C(=O)N(C)[C@@H](C(C)(C)C)C(=O)N(C)[C@H](C(=O)N3CCOCC3)CC(=O)N(C)[C@@H](CC(C)C)C(=O)N[C@@H]([C@@H](C)CC)C(=O)N(C)CC(=O)N(C)[C@H]3CCCCCN(C3=O)[C@@H](Cc3ccc(C(F)(F)F)cc3)C(=O)N(C)CC(=O)N[C@@H](CCc3cc(F)c(C(F)(F)F)c(F)c3)C(=O)N2C1 [PP0823],A (a compound having 10 or more and less than 20 is denoted as A),B (a compound having 3 or more and less than 10 is denoted as B)
CCO[C@@H]1C[C@H]2C(=O)NC3(CCC3)C(=O)N(C)[C@@H](C3CCCC3)C(=O)N(C)[C@H](C(=O)N(C)C)CC(=O)N(C)[C@@H](CC)C(=O)N[C@@H]([C@@H](C)CC)C(=O)N(C)CC(=O)N(C)[C@H]3C/C=C\CCN(C3=O)[C@@H](Cc3ccc(C(F)(F)F)cc3)C(=O)N(C)CC(=O)N[C@@H](CCc3cc(F)c(C(F)(F)F)c(F)c3)C(=O)N2C1 [PP0824],A (a compound having 10 or more and less than 20 is denoted as A),A (a compound having 10 or more and less than 20 is denoted as A)
CCO[C@@H]1C[C@H]2C(=O)NC3(CCC3)C(=O)N(C)[C@@H](C3CCCC3)C(=O)N(C)[C@H](C(=O)N3CCOCC3)CC(=O)N(C)[C@@H](CC(C)C)C(=O)N[C@@H]([C@@H](C)CC)C(=O)N(C)CC(=O)N(C)[C@H]3C/C=C\CCN(C3=O)[C@@H](Cc3ccc(C(F)(F)F)cc3)C(=O)N(C)CC(=O)N[C@@H](CCc3ccc(C(F)(F)F)c(Cl)c3)C(=O)N2C1 [PP0825],A (a compound having 10 or more and less than 20 is denoted as A),A (a compound having 10 or more and less than 20 is denoted as A)
CCO[C@@H]1C[C@H]2C(=O)NC3(CCC3)C(=O)N(C)[C@@H](C3CCCC3)C(=O)N(C)[C@H](C(=O)N3CCOCC3)CC(=O)N(C)[C@@H](CC(C)C)C(=O)N[C@@H]([C@@H](C)CC)C(=O)N(C)CC(=O)N(C)[C@H]3CC=C(C)CN(C3=O)[C@@H](Cc3ccc(C(F)(F)F)cc3)C(=O)N(C)CC(=O)N[C@@H](CCc3cc(F)c(C(F)(F)F)c(F)c3)C(=O)N2C1 [PP0826],C (A compound having a KD ratio of 0.1 or more and less than 3 is denoted as C),B (a compound having 3 or more and less than 10 is denoted as B)
CCO[C@@H]1C[C@H]2C(=O)NC3(CCC3)C(=O)N(C)[C@@H](C3CCCC3)C(=O)N(C)[C@H](C(=O)N(C)C)CC(=O)N(C)[C@@H](CC)C(=O)N[C@@H]([C@@H](C)CC)C(=O)N(C)CC(=O)N(C)[C@H]3CC=C(C)CN(C3=O)[C@@H](Cc3ccc(C(F)(F)F)cc3)C(=O)N(C)CC(=O)N[C@@H](CCc3cc(F)c(C(F)(F)F)c(F)c3)C(=O)N2C1 [PP0827],C (A compound having a KD ratio of 0.1 or more and less than 3 is denoted as C),C (A compound having a KD ratio of 0.1 or more and less than 3 is denoted as C)
CCO[C@@H]1C[C@H]2C(=O)NC3(CC(F)(F)C3)C(=O)N(C)[C@@H](C3CCCC3)C(=O)N(C)[C@H](C(=O)N3CCOCC3)CC(=O)N(C)[C@@H](CC(C)C)C(=O)N[C@@H]([C@@H](C)CC)C(=O)N(C)CC(=O)N(C)[C@H]3CC=C(C)CN(C3=O)[C@@H](Cc3ccc(C(F)(F)F)cc3)C(=O)N(C)CC(=O)N[C@@H](CCc3cc(F)c(C(F)(F)F)c(F)c3)C(=O)N2C1 [PP0828],C (A compound having a KD ratio of 0.1 or more and less than 3 is denoted as C),C (A compound having a KD ratio of 0.1 or more and less than 3 is denoted as C)
CCO[C@@H]1C[C@H]2C(=O)NC3(CCC3)C(=O)N(C)[C@@H](C3CCCC3)C(=O)N(C)[C@H](C(=O)N3CCOCC3)CC(=O)N(C)[C@@H](CC(C)C)C(=O)N[C@@H]([C@@H](C)CC)C(=O)N(C)CC(=O)N(C)[C@H]3C[C@H]4C[C@H]4CN(C3=O)[C@@H](Cc3ccc(C(F)(F)F)cc3)C(=O)N(C)CC(=O)N[C@@H](CCc3cc(F)c(C(F)(F)F)c(F)c3)C(=O)N2C1 [PP0829],B (a compound having 3 or more and less than 10 is denoted as B),C (A compound having a KD ratio of 0.1 or more and less than 3 is denoted as C)
CCO[C@@H]1C[C@H]2C(=O)NC3(CCC3)C(=O)N(C)[C@@H](C3CCCC3)C(=O)N(C)[C@H](C(=O)N(C)C)CC(=O)N(C)[C@@H](CC)C(=O)N[C@@H]([C@@H](C)CC)C(=O)N(C)CC(=O)N(C)[C@H]3C[C@H]4C[C@H]4CN(C3=O)[C@@H](Cc3ccc(C(F)(F)F)cc3)C(=O)N(C)CC(=O)N[C@@H](CCc3cc(F)c(C(F)(F)F)c(F)c3)C(=O)N2C1 [PP0830],C (A compound having a KD ratio of 0.1 or more and less than 3 is denoted as C),C (A compound having a KD ratio of 0.1 or more and less than 3 is denoted as C)
CCO[C@@H]1C[C@H]2C(=O)NC3(CC(F)(F)C3)C(=O)N(C)[C@@H](C3CCCC3)C(=O)N(C)[C@H](C(=O)N3CCOCC3)CC(=O)N(C)[C@@H](CC(C)C)C(=O)N[C@@H]([C@@H](C)CC)C(=O)N(C)CC(=O)N(C)[C@H]3C[C@H]4C[C@H]4CN(C3=O)[C@@H](Cc3ccc(C(F)(F)F)cc3)C(=O)N(C)CC(=O)N[C@@H](CCc3cc(F)c(C(F)(F)F)c(F)c3)C(=O)N2C1 [PP0831],C (A compound having a KD ratio of 0.1 or more and less than 3 is denoted as C),C (A compound having a KD ratio of 0.1 or more and less than 3 is denoted as C)
CCO[C@@H]1C[C@H]2C(=O)NC3(CCC3)C(=O)N(C)[C@@H](C3CCCC3)C(=O)N(C)[C@H](C(=O)N3CCOCC3)CC(=O)N(C)[C@@H](CC(C)C)C(=O)N[C@@H]([C@@H](C)CC)C(=O)N(C)CC(=O)N(C)[C@H]3CC=CCN(C3=O)[C@@H](Cc3ccc(C(F)(F)F)cc3)C(=O)N(C)CC(=O)N[C@@H](CCc3cc(F)c(C(F)(F)F)c(F)c3)C(=O)N2C1 [PP0832],C (A compound having a KD ratio of 0.1 or more and less than 3 is denoted as C),C (A compound having a KD ratio of 0.1 or more and less than 3 is denoted as C)
CC[C@H](C)[C@@H]1NC(=O)[C@H](COC)N(C)C(=O)C[C@@H](C(=O)N2CCOCC2)N(C)C(=O)[C@H](C2CCCC2)N(C)C(=O)C2(CCC2)NC(=O)[C@@H]2CC(F)(F)CN2C(=O)[C@H](CCc2cc(F)c(C(F)(F)F)c(F)c2)NC(=O)CN(C)C(=O)[C@H](Cc2ccc(C(F)(F)F)cc2)N2CCCCC[C@@H](C2=O)N(C)C(=O)CN(C)C1=O [PP0834],A (a compound having 10 or more and less than 20 is denoted as A),B (a compound having 3 or more and less than 10 is denoted as B)
CC[C@H](C)[C@@H]1NC(=O)[C@H](COC)N(C)C(=O)C[C@@H](C(=O)N2CCOCC2)N(C)C(=O)[C@H](C2CCCC2)N(C)C(=O)C2(CCC2)NC(=O)[C@@H]2C[C@H](OC)CN2C(=O)[C@H](CCc2cc(F)c(C(F)(F)F)c(F)c2)NC(=O)CN(C)C(=O)[C@H](Cc2ccc(C(F)(F)F)cc2)N2CCCCC[C@@H](C2=O)N(C)C(=O)CN(C)C1=O [PP0836],B (a compound having 3 or more and less than 10 is denoted as B),B (a compound having 3 or more and less than 10 is denoted as B)
CC[C@H](C)[C@@H]1NC(=O)[C@H](COC)N(C)C(=O)C[C@@H](C(=O)N2CCOCC2)N(C)C(=O)[C@H](C2CCCC2)N(C)C(=O)C2(CCC2)NC(=O)[C@@H]2C[C@@H](OC)CN2C(=O)[C@H](CCc2cc(F)c(C(F)(F)F)c(F)c2)NC(=O)CN(C)C(=O)[C@H](Cc2ccc(C(F)(F)F)cc2)N2CCCCC[C@@H](C2=O)N(C)C(=O)CN(C)C1=O [PP0837],B (a compound having 3 or more and less than 10 is denoted as B),B (a compound having 3 or more and less than 10 is denoted as B)
CCCO[C@@H]1C[C@H]2C(=O)NC3(CCC3)C(=O)N(C)[C@@H](C3CCCC3)C(=O)N(C)[C@H](C(=O)N3CCOCC3)CC(=O)N(C)[C@@H](COC)C(=O)N[C@@H]([C@@H](C)CC)C(=O)N(C)CC(=O)N(C)[C@H]3CCCCCN(C3=O)[C@@H](Cc3ccc(C(F)(F)F)cc3)C(=O)N(C)CC(=O)N[C@@H](CCc3cc(F)c(C(F)(F)F)c(F)c3)C(=O)N2C1 [PP0838],B (a compound having 3 or more and less than 10 is denoted as B),B (a compound having 3 or more and less than 10 is denoted as B)
